Reference: patent US20240254121A1, “ALKYLAMIDE SUBSTITUTED, ANNULATED IMIDAZOLES AND USE THEREOF AS INSECTICIDES” (Bayer Aktiengesellschaft, priority 2021, published 2024)

Key:
Assay type in all cases: in vivo
[1] = system: green peach aphid (Myzus persicae); assay: Myzus persicae oral test; conditions: 120 h, after 5 days
Experimental: Myzus persicae—Oral Test • Solvent: 100 parts by weight acetone
(§1) To produce a suitable preparation of active compound, 1 part by weight of active compound is mixed with the stated amount of solvent, and the concentrate is diluted with water to the desired concentration.
50 μL compound solution is filled in microtiter plates and 150 μL IPL41 insect medium (33%+15% sugar) is added to obtain a total volume of 200 μL per well. Afterwards the plates are sealed with parafilm through which a mixed population of the green peach aphid (Myzus persicae) can suck on the compound preparation.
(§2) After 5 days mortality in % is determined. 100% means all aphids have been killed and 0% means none of the aphids have been killed.

[2] = system: cotton aphid (Aphis gossypii); assay: Aphis gossypii oral test; conditions: 120 h, after 5 days
Experimental: Aphis gossypii—Oral Test • Solvent: 100 Parts by Weight Acetone
as §1
50 μL compound solution is filled in microtiter plates and 150 μL IPL41 insect medium (33%+15% sugar) is added to obtain a total volume of 200 μL per well. Afterwards the plates are sealed with parafilm through which a mixed population of the cotton aphid (Aphis gossypii) can suck on the compound preparation.
as §2

[3] = system: fall armyworm larvae (Spodoptera frugiperda); assay: Spodoptera frugiperda spray test; conditions: 168 h, maize leaf sections, after 7 days
Experimental: Spodoptera frugiperda—Spray Test • Solvent: 78.0 parts by weight acetone • 1.5 parts by weight dimethylformamide • Emulsifier: alkylarylpolyglycol ether
To produce a suitable preparation of active compound, 1 part by weight of active compound is mixed with the stated amount of solvents and is diluted with water, containing an emulsifier concentration of 1000 ppm, to the desired concentration. Further test concentrations are prepared by dilution with emulsifier containing water.
Maize (Zea mays) leaf sections are sprayed with a preparation of the active ingredient of the desired concentration. Once dry, the leaf sections are infested with fall armyworm larvae (Spodoptera frugiperda).
After 7 days mortality in % is determined. 100% means all caterpillars have been killed and 0% means none of the caterpillars have been killed.

[4] = system: larvae of the southern green stink bug (Nezara viridula); assay: Nezara viridula spray test; conditions: 96 h, barley plants, after 4 days
Experimental: Nezara viridula—Spray Test • Solvent: 78.0 parts by weight of acetone • 1.5 parts by weight of dimethylformamide • Emulsifier: alkylarylpolyglycol ether
(§3) To produce a suitable preparation of active compound, 1 part by weight of active compound is mixed with the stated amount of solvent, and the concentrate is diluted with water, containing an emulsifier concentration of 1000 ppm, to the desired concentration. Further test concentrations are prepared by dilution with emulsifier containing water.
Barley plants (Hordeum vulgare) are sprayed with a test solution containing the desired concentration of the active ingredient and are infested with larvae of the southern green stink bug (Nezara viridula).
After 4 days mortality in % is determined. 100% means all the stink bugs have been killed; 0% means none of the stink bugs have been killed.

[5] = system: cattle tick larvae (Rhipicephalus microplus); assay: Rhipicephalus (Boophilus) microplus in-vitro contact test, larval cattle tick (strain Parkhurst, resistant against synthetic pyrethroids); conditions: 1 μg/cm^2 (=100 g/ha), after 48 hours, read-out: efficacy (larvae dead or moribund)
Experimental: Rhipicephalus (Boophilus) Microplus—In-Vitro Contact Tests Larval Cattle Tick (Strain Parkhurst, Resistant Against Synthetic Pyrethroids)
9 mg compound is solved in 1 mL acetone and diluted with acetone to the desired concentration. 250 μL of the test solution is filled in 25 mL glass test tubes and homogeneously distributed on the inner walls by rotation and tilting on a shaking device (2 h at 30 rpm). With a compound concentration of 900 ppm, an inner surface of 44.7 cm^2 and a homogeneous distribution, a dose of 5 μg/cm^2 is achieved.
After the solvent has evaporated, each test tube is filled with 20-50 cattle tick larvae (Rhipicephalus microplus), closed with a perforated lid and incubated in a horizontal position at 85% relative humidity and 27° C. in an incubator. After 48 hours efficacy is determined. The larvae are patted on the ground of the tubes and negative geotactic behavior is recorded.
An efficacy of 100% means all larvae are dead or moribund; 0% means no larvae are dead or moribund.

[6] = system: adult mosquitoes Aedes aegypti strain MONHEIM; assay: Aedes aegypti test (AEDSAE surface treatment & contact assay); conditions: 24 hours after contact, read-out: efficacy (mortality); for mortality at 20 mg/m2: surface concentration 20 mg/m^2, 30 minutes exposure
Experimental: Aedes aegypti Test (AEDSAE Surface Treatment & Contact Assay) • Solvent: Aceton+2000 ppm rapeseed oil methyl ester (RME)
In order to produce a sufficient, active ingredient containing solution it is necessary to solve the test compound in the solvent-mix (acetone at 2 mg/ml/RME 2000 ppm). This solution is pipetted onto a glazed tile and after evaporation of the acetone, adult mosquitoes of the species Aedes aegypti strain MONHEIM are placed onto the dried surface. The exposure time is 30 minutes. Mortality in percent (%) is determined 24 hours after contact of the insects to the treated surface. 100% mortality means that all tested insects are dead, whereas 0% means that no insect died.

[7] = system: larvae of the banded cucumber beetle (Diabrotica balteata); assay: Diabrotica balteata spray test; conditions: 168 h, 100 g/ha (=32 μg/well), wheat seeds, after 7 days, read-out: efficacy (seedling growth)
Experimental: Diabrotica Balteata—Spray Test
• Solvent: 78.0 Parts by Weight of Acetone • 1.5 parts by weight of dimethylformamide • Emulsifier: Alkylarylpolyglycol Ether
as §3
Soaked wheat seeds (Triticum aestivum) are placed in a multiple well plate filled with agar and some water and are incubated for 1 day to germinate (5 seeds per well). The germinated wheat seeds are sprayed with a test solution containing the desired concentration of the active ingredient. Afterwards each unit is infected with 10-20 larvae of the banded cucumber beetle (Diabrotica balteata).
After 7 days efficacy in % is determined. 100% means all the seedlings have grown up like in the untreated, uninfected control; 0% means none of the seedlings have grown.

[8] = system: adult flies Musca domestica strain WHO-N; assay: Musca domestica test (MUSCDO surface treatment & contact assay); conditions: 24 hours after contact, read-out: efficacy (mortality); for mortality at 4 mg/m2: surface concentration 4 mg/m^2, 30 minutes exposure; for mortality at 20 mg/m2: surface concentration 20 mg/m^2, 30 minutes exposure
Experimental: Musca domestica Test (MUSCDO Surface Treatment & Contact Assay) • Solvent: Aceton+2000 ppm rapeseed oil methyl ester (RME)
In order to produce a sufficient, active ingredient containing solution it is necessary to solve the test compound in the solvent-mix (acetone at 2 mg/ml/RME 2000 ppm). This solution is pipetted onto a glazed tile and after evaporation of the acetone, adult flies of the species Musca domestica strain WHO-N are placed onto the dried surface. The exposure time is 30 minutes. Mortality in percent (%) is determined 24 hours after contact of the insects to the treated surface. 100% mortality means that all tested insects are dead, whereas 0% means that no insect died.

[9] = system: adult mosquitoes Culex quinquefasciatus strain P00; assay: Culex quinquefasciatus test (CULXFA surface treatment & contact assay); conditions: surface concentration 4 mg/m^2, 30 minutes exposure, 24 hours after contact, read-out: efficacy (mortality)
Experimental: Culex quinquefasciatus Test (CULXFA Surface Treatment & Contact Assay) • Solvent: Aceton+2000 ppm rapeseed oil methyl ester (RME)
In order to produce a sufficient, active ingredient containing solution it is necessary to solve the test compound in the solvent-mix (acetone at 2 mg/ml/RME 2,000 ppm). This solution is pipetted onto a glazed tile and after evaporation of the acetone, adult mosquitoes of the species Culex quinquefasciatus strain P00 are placed onto the dried surface. The exposure time is 30 minutes. Mortality in percent (%) is determined 24 hours after contact of the insects to the treated surface. 100% mortality means that all tested insects are dead, whereas 0% means that no insect died.

SMILES	mortality at 100 g/ha [3]	mortality at 500 g/ha [4]	pest or weed control at 32 µg/disc, 100 g/ha [7]	other results
C[C@H](NC(=O)c1cc(Cl)cc(S(C)(=O)=O)c1)c1nc2cccnc2n1-c1ccc(C#N)cn1 [Example I-5]	100%	100%		mortality at 20 ppm [1]: 100%; mortality at 100 ppm [2]: 100%
C[C@H](NC(=O)c1cc(C#N)cc(C(C)(C)C#N)c1)c1nc2cccnc2n1-c1ccc(C#N)cn1 [Example I-7]	100%			pest or weed control at 1 µg/cm2, 100 g/ha [5]: 90%; mortality at 20 ppm [1]: 100%; mortality at 100 ppm [2]: 100%; mortality at 20 mg/m2 [6]: 80 to 100%
CC(NC(=O)c1cc(OC(F)(F)F)cc(C2(C#N)CC2)c1)c1nc2cccnc2n1-c1ccc(Cl)cn1 (stereo not shown) [Example I-11]	100%		100%	pest or weed control at 1 µg/cm2, 100 g/ha [5]: 90%; mortality at 4 mg/m2 [8]: 80 to 100%; mortality at 20 mg/m2 [8]: 80 to 100%; mortality at 20 mg/m2 [6]: 80 to 100%
CC(NC(=O)c1cc(OC(F)(F)F)cc(S(C)(=O)=O)c1)c1nc2cccnc2n1-c1ccc(Cl)cn1 (stereo not shown) [Example I-12]	100%	100%	100%	
CC(NC(=O)c1cc(OC(F)(F)F)cc(C(C)(C)C#N)c1)c1nc2cccnc2n1-c1ccc(Cl)cn1 (stereo not shown) [Example I-14]	83%			pest or weed control at 1 µg/cm2, 100 g/ha [5]: 100%; mortality at 20 mg/m2 [8]: 80 to 100%; mortality at 20 mg/m2 [6]: 80 to 100%
C[C@H](NC(=O)c1cc(OC(F)(F)F)cc(OC(F)(F)F)c1)c1nc2cccnc2n1-c1ccc(C#N)cn1 [Example I-16]	100%		100%	pest or weed control at 1 µg/cm2, 100 g/ha [5]: 100%; mortality at 4 mg/m2 [8]: 80 to 100%; mortality at 20 mg/m2 [8]: 80 to 100%; mortality at 4 mg/m2 ([6]; surface concentration 4 mg/m^2, 30 minutes exposure): 80 to 100%; mortality at 20 mg/m2 [6]: 80 to 100%
Cc1ccc2nc(C(C)NC(=O)c3cc(Cl)cc(OC(F)(F)F)c3)n(-c3ccc(C#N)cn3)c2n1 (stereo not shown) [Example I-20]	100%			
Cc1ccc2nc(C(C)NC(=O)c3cc(OC(F)(F)F)cc(S(C)(=O)=O)c3)n(-c3ccc(C#N)cn3)c2n1 (stereo not shown) [Example I-23]	100%			
CNC(=O)c1ccc(-n2c(C(C)NC(=O)c3cc(OC(F)(F)F)cc(S(C)(=O)=O)c3)nc3cccnc32)nc1 (stereo not shown) [Example I-28]		100%		
CC(NC(=O)c1cc(OC(F)(F)F)cc(S(C)(=O)=O)c1)c1nc2cccnc2n1-c1ccc(C(=O)N(C)C)cn1 (stereo not shown) [Example I-29]		90%		
CC(NC(=O)c1cc(C(F)(F)F)cc(C(F)(F)F)c1)c1nc2cccnc2n1-c1ccc(C(N)=O)cn1 (stereo not shown) [Example I-30]		100%		
C[C@H](NC(=O)c1cc(C(F)(F)F)cc(C(F)(F)F)c1)c1nc2ncccc2n1-c1ccc(C#N)cn1 [Example I-32]	100%			
CC(NC(=O)c1cc(OC(F)(F)F)cc(C2CC2)c1)c1nc2ncccc2n1-c1ccc(Cl)cn1 (stereo not shown) [Example I-33, N-[1-[I-(5-chloro-2-pyridyl)imidazo[4,5-b]pyridin-2-yl]ethyl]-3-cyclopropyl-5-(trifluoromethoxy) benzamide]	100%			mortality at 4 mg/m2 [9]: 80 to 100%
CC(NC(=O)c1cc(Cl)cc(OC(F)(F)F)c1)c1nc2cc(F)cnc2n1-c1ccc(C#N)cn1 (stereo not shown) [Example I-34]	100%		100%	
CC(NC(=O)c1cc(OC(F)(F)F)cc(S(=O)(=O)C(F)F)c1)c1nc2cccnc2n1-c1ccc(C#N)cn1 (stereo not shown) [Example I-36]	100%		100%	
CC(NC(=O)c1cc(OC(F)(F)F)cc(C(C)(F)F)c1)c1nc2cccnc2n1-c1ccc(C#N)cn1 (stereo not shown) [Example I-37]	100%		100%	
CC(NC(=O)c1cc(C(F)(F)F)cc(C(F)(F)F)c1)c1nc2cnccc2n1-c1ccc(Cl)cn1 (stereo not shown) [Example I-39, N-[1-[1-(5-chloro-2-pyridyl)imidazo[4,5-c]pyridin-2-yl]ethyl]-3,5-bis(trifluoromethyl)benzamide]		100%	100%	
CC(NC(=O)c1cc(Br)cc(OC(F)(F)F)c1)c1nc2cccnc2n1-c1ccc(C#N)cn1 (stereo not shown) [Example I-41]	100%		100%	
CC(NC(=O)c1cc(C#N)cc(OC(F)(F)F)c1)c1nc2cccnc2n1-c1ccc(C#N)cn1 (stereo not shown) [Example I-42]	100%			
CC(NC(=O)c1cc(C(F)F)cc(C(F)F)c1)c1nc2cccnc2n1-c1ccc(C#N)cn1 (stereo not shown) [Example I-44]	83%			
